Data taken from paper PMC9862597, “Anti-Colorectal Cancer Effects of a Novel Camptothecin Derivative PCC0208037 In Vitro and In Vivo” (Pharmaceuticals, 2022).

Experiments:
recombinant Topo I = biological target: T1, recombinant Topo I (Homo sapiens, UniProt P11387); test: Topoisomerase I activity assay (DNA relaxation); assay type: biochemical; details: PCC0208037 100 and 10 nmol/L, SN-38 100 nmol/L, CPT-11 100 nmol/L; 30 min, 37 °C
T1 construct: purchased TopoGEN, Inc (Buena Vista, CO, USA) TG1018
T1 sequence (P11387 1-765): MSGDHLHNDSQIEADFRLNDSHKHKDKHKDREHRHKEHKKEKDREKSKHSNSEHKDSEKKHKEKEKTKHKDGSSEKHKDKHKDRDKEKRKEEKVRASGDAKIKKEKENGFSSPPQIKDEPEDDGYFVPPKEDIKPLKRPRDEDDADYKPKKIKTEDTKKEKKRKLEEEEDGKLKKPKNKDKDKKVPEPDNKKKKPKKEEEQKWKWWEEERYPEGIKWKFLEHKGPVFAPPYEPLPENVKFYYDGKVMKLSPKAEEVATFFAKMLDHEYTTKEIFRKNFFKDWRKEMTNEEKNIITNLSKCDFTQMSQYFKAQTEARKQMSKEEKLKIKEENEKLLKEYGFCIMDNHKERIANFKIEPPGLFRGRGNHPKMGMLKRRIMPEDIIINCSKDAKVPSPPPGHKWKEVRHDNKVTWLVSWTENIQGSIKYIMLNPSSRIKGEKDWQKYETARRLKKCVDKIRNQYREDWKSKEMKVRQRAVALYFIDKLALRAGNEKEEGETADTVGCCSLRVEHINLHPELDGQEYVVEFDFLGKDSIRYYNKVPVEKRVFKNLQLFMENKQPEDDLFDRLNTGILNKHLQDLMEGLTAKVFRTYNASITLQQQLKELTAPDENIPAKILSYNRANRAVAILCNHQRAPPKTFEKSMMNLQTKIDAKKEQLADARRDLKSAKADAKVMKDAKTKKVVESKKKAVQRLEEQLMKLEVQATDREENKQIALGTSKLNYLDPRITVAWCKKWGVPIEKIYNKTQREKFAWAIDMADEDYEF
Description: To determine whether PCC0208037 inhibited Topo I activity, a DNA relaxation assay was conducted. In this assay, supercoiled plasmid DNA was relaxed and nicked by recombinant Topo I, while no nicked DNA would be found when the Topo I enzyme was inhibited.
A Topoisomerase I Drug Screening Kit was used to detect the inhibitory activity of PCC0208037 against Topo I in the cell-free system. 1 IU Topo I and 250 ng of supercoiled plasmid DNA were pre-incubated with DMSO, PCC0208037 (100 nmol/L and 10 nmol/L), SN-38(100 nmol/L), or CPT (100 nmol/L) in a reaction buffer with a final volume of 20 μL and incubated for 30 min at 37 °C; then, the reaction was stopped by the addition of 2 ul of 10% SDS. Then, proteinase K was added to 50 ug/mL, incubated for 15 min at 37 °C, and 0.1 vol. of a loading buffer (0.25% bromophenol blue, 50% glycerol) was added. The supercoiled, relaxed, or nicked DNA was separated by 1% agarose gel in a 1 TAE (Tris-Acetate-EDTA) buffer. Ethidium bromide-stained agarose gel was photographed using Gel Doc XR.
Figure 4 Inhibition of Topo I activity by PCC0208037. […] Plasmid DNA was separated by an agarose gel and stained with ethidium bromide.

LS180 cells = test: Flow cytometry cell cycle and apoptosis assay; assay type: cell-based; details: LS180, 24, 48 and 72 h
Description: Cell cycle analysis and an Apoptosis Assessment were performed using flow cytometry. LS180 cells were seeded in 6-well plates at a density of 1 × 10^5 cells per well for 12 h, and then different concentrations of PCC0208037 were added for 24, 48, and 72 h, respectively. Cells were stained with PI- or PI/FITC-labeled annexin, and the effects of PCC0208037 on cell cycle progression and apoptosis were analyzed by flow cytometry.
Figure 5 PCC0208037 induced G2/M phase arrest and apoptosis in LS180 cells. (A) Cells were treated with multiple concentrations of PCC0208037 for 24, 48, and 72 h and then analyzed by flow cytometry with PI staining. (B). Cells were treated with multiple concentrations of PCC0208037 for 24, 48, and 72 h and then analyzed by flow cytometry with annexin VeFITC staining. The data were expressed as the mean ± SD (n = 3). * p < 0.05 as compared to the control.

[1] = PCC0208037- and CPT-11-induced toxicity in mice; details: 50 mg/kg/day i.p. for four days

Q: For CCc1c2c(nc3ccc(O)cc13)-c1cc3c(c(=O)n1C2)COC(=O)[C@@]3(CC)OC(=O)Nc1nc(=O)n([C@@H]2O[C@H](C)[C@@H](O)[C@H]2O)cc1F [PCC0208037], which “inhibition of Topo I activity (supercoiled plasmid DNA relaxation)” value (recombinant Topo I) is on record?
A: Its value is “dose-dependently increased the presence of supercoiled DNA”.

Q: What about the “percentage of apoptotic cells” value (LS180 cells; FITC annexin V staining) of the same compound?
A: The value was “significantly increased the percentage of apoptotic cells”.

Q: What about the “ratio of cells in the G2/M phase” value (LS180 cells; PI staining) of the same compound?
A: Its value is “significantly increased the ratio of the cells in the G2/M phase”.

Q: What about the “colorectal tissue histomorphological examination (H&E)” value ([1]; colon after 7 days) of the same compound?
A: The value was “A mild reduction of goblet cells and a mild infiltration of lymphocytes”.

Q: What about the mortality ([1]; seven-day observation) of the same compound?
A: Its mortality is “No animal died”.

Q: What about the “recovery of body weight and food intake decrease” value ([1]; seven-day observation) of the same compound?
A: The value was “began to recover on the 6th day onwards”.
